The record followed here is patent US20250281515A1, “CARBORANE COMPOUNDS, CARBORANE ANALOGS, AND METHODS OF USE THEREOF” (Ohio State Innovation Foundation, priority 2018, published 2025).

Values joined by “and” are separate entries in the source; they are usually repeats but may differ in a detail not shown here. Identical values can stand only once. Like-named read-outs stand apart in the source and are kept apart here.

For one assay, the target named is T1, Human full-length ERα (Homo sapiens, UniProt P03372).
T1 construct: expression vector encoding human full-length ERα or ERβ; expressed in transfected cells; host or cells: HEK293, transiently transfected
T1 sequence (P03372 1-595): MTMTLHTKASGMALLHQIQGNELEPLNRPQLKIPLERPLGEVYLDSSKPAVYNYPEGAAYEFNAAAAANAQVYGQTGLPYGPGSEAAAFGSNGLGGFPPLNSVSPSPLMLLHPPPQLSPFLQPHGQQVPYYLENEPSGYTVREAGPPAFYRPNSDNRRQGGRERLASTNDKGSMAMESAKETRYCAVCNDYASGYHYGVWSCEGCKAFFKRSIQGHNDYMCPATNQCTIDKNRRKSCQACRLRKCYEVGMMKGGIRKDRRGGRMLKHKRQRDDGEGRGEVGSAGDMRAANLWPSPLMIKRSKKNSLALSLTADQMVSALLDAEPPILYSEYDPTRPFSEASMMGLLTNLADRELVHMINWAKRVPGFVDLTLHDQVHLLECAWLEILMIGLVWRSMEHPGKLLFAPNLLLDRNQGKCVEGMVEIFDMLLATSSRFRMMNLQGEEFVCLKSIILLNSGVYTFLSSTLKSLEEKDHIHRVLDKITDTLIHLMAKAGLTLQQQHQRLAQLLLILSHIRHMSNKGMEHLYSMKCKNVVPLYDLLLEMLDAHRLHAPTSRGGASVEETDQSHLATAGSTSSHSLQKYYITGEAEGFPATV
As to the kind of experiment: ERα cell-based luciferase reporter assay, agonist mode. The note with it: for EC50: Table 8, second library, read-out: ERα agonism EC50. The procedure:
(§1) The selectivity and potency of the various compounds was carried out via in vitro testing in ERα and ERβ cell-based reporter assays. The activity of the selected compounds was determined in the cell-based reporter assays in HEK293 cells.
(§2) The HEK293 cells were propagated in a monolayer in phenol red-free DMEM supplemented with 10% fetal bovine serum, 2 mM Glutamax and penicillin/streptomycin (Thermo Fisher Scientific, MA, USA) and incubated in a 5% CO2 humidified atmosphere at 37° C. Right before transfection, the growth medium was changed to phenol red-free DMEM supplemented with 4% HyClone Fetal Bovine Serum, Charcoal/Dextran Treated (GE Healthcare Life Sciences, USA) and 2 mM Glutamax (starvation medium). The cells were transfected with the expression vector encoding human full-length ERα or ERβ and with the reporter vector containing 3 repeats of estrogen responsive elements (ERE) followed by the minimal thymidine kinase promoter from the herpes simplex virus in the pGL4 vector (Promega, USA). Luciferase served as a reporter gene. The transfection was carried out in 10 cm dishes (Nunc) in the starvation medium. After 24 hours, the cells were trypsinized, counted and seeded to cell culture treated, white, solid 1536-well plates (Corning Inc., NY, USA) at 1500 cells/well in 4 μl of total media volume. The compounds to be tested were diluted in DMSO and transferred to the cells using an acoustic dispenser Echo 520 (Labcyte). The compounds were tested at least at 12 different concentration points in the range from […] to 100 μM, in triplicates. Luciferase activity was determined after 24 hours of incubation with compounds with Britelite plus luciferase reporter gene assay reagent (Perkin Elmer, USA), according to the manufacturer protocol. The luciferase signal was measured on an Envison multimode plate reader (Perkin Elmer, USA). Data were collected and processed using an in-house built LIMS system ScreenX and GraphPad Prism software. EC50 values were calculated using a regression function (dose response, variable slope).
(§3) The selectivity and potency of various example compounds in the second library was carried out via in vitro testing in ERα and ERβ cell-based reporter assays.
In general terms: A reporter such as luciferase makes a cellular process visible.

Another assay deals with T2, Human full-length ERβ (Homo sapiens, UniProt Q92731).
T2 construct: expression vector encoding human full-length ERα or ERβ; expressed in transfected cells; host or cells: HEK293, transiently transfected
T2 sequence (Q92731 whole entry): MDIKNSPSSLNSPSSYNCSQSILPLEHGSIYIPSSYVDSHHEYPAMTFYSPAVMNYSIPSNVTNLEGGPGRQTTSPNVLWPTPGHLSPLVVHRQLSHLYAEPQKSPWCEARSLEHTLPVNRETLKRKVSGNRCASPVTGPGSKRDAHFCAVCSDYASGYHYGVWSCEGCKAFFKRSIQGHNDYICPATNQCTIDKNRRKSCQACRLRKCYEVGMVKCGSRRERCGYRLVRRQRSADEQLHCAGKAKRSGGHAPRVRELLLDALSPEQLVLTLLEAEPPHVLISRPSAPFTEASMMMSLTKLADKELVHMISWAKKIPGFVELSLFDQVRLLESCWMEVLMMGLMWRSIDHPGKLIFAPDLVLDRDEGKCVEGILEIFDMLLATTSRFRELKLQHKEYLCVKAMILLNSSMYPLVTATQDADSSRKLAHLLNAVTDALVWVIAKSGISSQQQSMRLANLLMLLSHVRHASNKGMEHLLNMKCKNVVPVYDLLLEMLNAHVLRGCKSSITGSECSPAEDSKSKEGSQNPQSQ
The assay is described as follows: ERβ cell-based luciferase reporter assay, agonist mode. The method, then:
as §1, §2, §3

The test system of another assay is HEK293 cells. The assay is described as follows: HEK293 viability assay (ATPlite 1step). Format: cell-based, human. The note with it: non-transfected HEK293, 24 h, ATP level; Trial 2; Low = activity too low for exact value. The method, then: The non-transfected HEK293 cells were seeded to the 384-well plates at 5000 cell/well, compounds were added and the timing of all subsequent steps was exactly the same as in the reporter assays. […] After 24 h of compound incubation with cells, the viability of cells was measured by determining the ATP level in the samples using luciferase cell viability assay, ATPlite 1step (Perkin Elmer, USA).
On the technique in general: In ATP-based viability assays light output follows the ATP content of the culture.

The target in the next assay is T3, Human full-length GR (Homo sapiens, UniProt P04150).
T3 sequence (P04150 1-777): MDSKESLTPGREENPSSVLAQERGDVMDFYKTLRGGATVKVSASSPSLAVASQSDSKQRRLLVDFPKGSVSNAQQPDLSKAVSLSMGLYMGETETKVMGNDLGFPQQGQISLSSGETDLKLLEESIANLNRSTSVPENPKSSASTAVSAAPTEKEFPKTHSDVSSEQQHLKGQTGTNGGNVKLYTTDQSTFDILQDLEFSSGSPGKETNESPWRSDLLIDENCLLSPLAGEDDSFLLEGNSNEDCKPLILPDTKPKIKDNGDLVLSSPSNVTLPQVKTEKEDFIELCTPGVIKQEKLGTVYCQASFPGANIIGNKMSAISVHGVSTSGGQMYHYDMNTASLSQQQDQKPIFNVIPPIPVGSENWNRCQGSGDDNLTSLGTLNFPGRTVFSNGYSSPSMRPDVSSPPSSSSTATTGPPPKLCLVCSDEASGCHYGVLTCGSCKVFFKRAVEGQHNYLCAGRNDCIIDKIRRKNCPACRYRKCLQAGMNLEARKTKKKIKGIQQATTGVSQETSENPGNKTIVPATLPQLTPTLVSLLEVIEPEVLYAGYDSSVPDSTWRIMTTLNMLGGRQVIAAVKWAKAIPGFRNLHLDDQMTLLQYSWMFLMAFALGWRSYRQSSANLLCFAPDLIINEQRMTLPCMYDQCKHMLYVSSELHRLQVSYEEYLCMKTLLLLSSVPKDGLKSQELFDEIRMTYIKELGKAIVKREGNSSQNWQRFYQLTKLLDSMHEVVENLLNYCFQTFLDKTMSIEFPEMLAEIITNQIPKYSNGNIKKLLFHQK
As to the kind of experiment: GR cell-based luciferase reporter assay, agonist and antagonist mode. Conditions: U2OS stable reporter cells; antagonist mode with 10 nM dexamethasone; concentration range tested 100 μM to 100 μM (so in the source).

The target of another assay is T4, Human full-length AR (Homo sapiens, UniProt P10275).
T4 sequence (P10275 1-920): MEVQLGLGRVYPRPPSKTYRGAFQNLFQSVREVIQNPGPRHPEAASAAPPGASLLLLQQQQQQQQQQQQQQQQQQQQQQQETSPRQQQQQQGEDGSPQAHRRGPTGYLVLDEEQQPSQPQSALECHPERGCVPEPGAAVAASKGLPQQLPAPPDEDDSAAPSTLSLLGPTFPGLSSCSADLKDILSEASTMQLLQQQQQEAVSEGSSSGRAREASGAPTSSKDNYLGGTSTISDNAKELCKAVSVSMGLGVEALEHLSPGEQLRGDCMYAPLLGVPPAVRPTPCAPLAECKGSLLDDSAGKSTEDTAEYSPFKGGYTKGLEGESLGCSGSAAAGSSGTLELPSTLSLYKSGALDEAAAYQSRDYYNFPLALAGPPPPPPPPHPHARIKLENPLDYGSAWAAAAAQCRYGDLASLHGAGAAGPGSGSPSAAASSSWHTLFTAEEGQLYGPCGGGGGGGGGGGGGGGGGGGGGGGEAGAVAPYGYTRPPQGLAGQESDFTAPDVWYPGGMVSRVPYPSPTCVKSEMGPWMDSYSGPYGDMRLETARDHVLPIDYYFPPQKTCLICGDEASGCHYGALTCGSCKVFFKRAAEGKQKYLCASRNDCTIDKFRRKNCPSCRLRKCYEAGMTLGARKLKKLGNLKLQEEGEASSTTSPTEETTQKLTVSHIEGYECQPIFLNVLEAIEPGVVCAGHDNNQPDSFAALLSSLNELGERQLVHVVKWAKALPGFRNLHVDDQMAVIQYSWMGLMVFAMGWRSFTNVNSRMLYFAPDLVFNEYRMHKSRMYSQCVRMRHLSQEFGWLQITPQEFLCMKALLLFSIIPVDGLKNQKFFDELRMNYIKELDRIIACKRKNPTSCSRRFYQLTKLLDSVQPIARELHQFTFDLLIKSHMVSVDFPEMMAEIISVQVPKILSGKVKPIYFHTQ
As to the kind of experiment: AR cell-based luciferase reporter assay, agonist and antagonist mode. The note with it: U2OS stable reporter cells; antagonist mode with 2 nM DHT; concentration range tested 100 μM to 100 μM (so in the source).

[1] abbreviates: Table 8, second library, read-out: ERβ agonism EC50.
The mark [2] stands for this setting: HEK293, 24 hours, Trial 2 (believed more reliable), low = activity detected but too low for exact value.

With `CCCCCC[C@@H](O)C12CCC(c3ccc(O)cc3)(CC1)CC2` [Compound 29], the EC50 at Human full-length ERα and on Human full-length ERβ (setting [1]) was more than 10 µM each time.
For the molecule `CCCCCC[C@H](O)C1C2CC3CC1CC(c1ccc(O)cc1)(C3)C2` (stereo partly drawn) [Compound 30], the EC50 at Human full-length ERα and at Human full-length ERβ (setting [1]) was more than 10 µM throughout.
As for `CCCCCC[C@H](O)C1CCC(c2ccc(O)cc2)CC1` (stereo partly drawn) [Compound 27], the EC50 on Human full-length ERα and on Human full-length ERβ (setting [1]) was more than 10 µM each time.
As to `CCCc1c(-c2ccc(O)cc2)nn(-c2ccc(O)cc2)c1-c1ccc(O)cc1` [PPT, Propyl pyrazole triol, reference compound], the “ERα Efficacy” value at Human full-length ERα (HEK293, 24 hours, Trial 2) stood at 101. Moreover, at Human full-length ERβ (setting [2]), the “ERβ EC50 (nM)” value is “low” and the “ERβ Log(EC50)” value was “low”.
For `CCCCCC[C@H](O)c1ccc(-c2ccc(O)cc2)cc1` [Compound 26], the EC50 at Human full-length ERα and at Human full-length ERβ (setting [1]) was more than 10 µM throughout.
In the case of `C[C@]12CC[C@@H]3c4ccc(O)cc4CC[C@H]3[C@@H]1CC[C@@H]2O` [Compound E2, Estradiol, reference compound], the “HEK293 viability IC50 (μM)” value with HEK293 cells is recorded as “Low”. The “agonistic or antagonistic activities on GR” value at Human full-length GR was “no agonistic or antagonistic activities”.
Take “1-(4-hydoxyphenyl)-12-(1-hydroxyheptyl)-1,12-dicarba-closo-dodecaborane [Compound 06]”: the “ERβ Efficacy” value on Human full-length ERβ (HEK293, 24 hours, Trial 2) is 100 and 103. Also, the “ERβ Log(EC50)” value on Human full-length ERβ (setting [2]) is −7.71 and −7.76. Besides, the concentration for a half-maximal effect (EC50) (in general, the concentration at which the effect is half-maximal) on Human full-length ERβ (HEK293, 24 hours, Trial 2 (believed more reliable), low = activity detected but too low for exact value, read-out: ERβ EC50) was 0.019 µM and 0.017 µM; on Human full-length ERβ (text of Example 19, luciferase reporter-based cell assay in HEK cells, read-out: EC50 at ERβ) it was 0.005 µM. For the same molecule, the IC50 – broadly, the concentration at which inhibition is half-maximal – in the assay with HEK293 cells was 18 µM and 17 µM. The “agonistic or antagonistic activities on GR” value at Human full-length GR is listed as “no agonistic or antagonistic activities”.
Regarding `N#CC(Cc1ccc(O)cc1)c1ccc(O)cc1` (stereo not drawn) [DPN, Diarylpropionitrile], the “HEK293 viability IC50 (μM)” value in the assay on HEK293 cells was “Low”. Also, the “agonistic or antagonistic activities on AR” value on Human full-length AR is “no agonistic or antagonistic activities”. Moreover, the “agonistic or antagonistic activities on GR” value on Human full-length GR was “no agonistic or antagonistic activities”.
As for `CCCCCC[C@H](O)C12CCC(c3ccc(O)cc3)(CC1)CC2` [Compound 28], the concentration for a half-maximal effect (EC50) at Human full-length ERα was more than 10 µM; at Human full-length ERβ (setting [1]), 4.12 µM.
